Several values for one entry are separate records, joined by “and”; a condition that tells them apart may be missing. Equal entries are not always repeated. Where two headings read alike, the source gives them in different places. Peptide text beside a SMILES is read from it.
Assays:
[1] = system: E. coli BW25113; assay: microbe, parasite or virus in culture; type: cell-based, Escherichia coli; conditions: for MICpeptide: synergist alone, E. coli BW25113, from checkerboard with vancomycin; for MSCpeptide: synergist concentration in the combination with vancomycin giving the lowest FICi; for MSCpeptide / MSCvanco: E. coli BW25113; for MSCvanco: vancomycin concentration in the combination giving the lowest FICi; for FICi: BW25113, 20 h
Description: (§1) All peptides were screened for antimicrobial activity against E. coli BW25113, E. coli ATCC25922, and E. coli W3110. A select group of the peptides was further tested against E. coli mcr-1, E. coli EQASmcr-1 (EQAS 2016 412016126), E. coli EQASmcr-2 (EQAS 2016 KP37), E. coli EQASmcr-3 (EQAS 2017 2013-SQ352), K. pneumoniae ATCC13883, P. aeruginosa ATCC27853, and A. baumannii ATCC17978. The antimicrobial assay was performed according to CLSI guidelines. Bacteria were plated out directly from their glycerol stocks on blood agar plates, incubated overnight at 37 °C, and then kept in the fridge. The blood agar plates were only used for 2 weeks and then replaced.
(§2) One colony from a blood agar plates was inoculated in Lysogeny Broth (LB) at 37 °C until a 0.5 optical density at 600 nm (OD600) was reached (compared to the sterility control of LB). The bacterial suspension was diluted in fresh LB to 2.0 × 10^6 CFU/mL. The serial dilutions were prepared in polypropylene microtiter plates: a stock of the test compounds was prepared with a 2x final concentration in LB. Moreover, 100 µL of the stock was added to the wells of the top row of which 50 µL was used for the serial dilution. The bottom row of each plate was used as the positive (50 µL of LB) and negative controls (100 µL of LB) (6 wells each). Furthermore, 50 µL of the 2.0 × 10^6 CFU/mL bacterial stock was added to each well except for the negative controls, adding up to a total volume of 100 µL per well. The plates were sealed with a breathable seal and incubated for 20 h at 37 °C and 600 rpm.
(§3) Two 96-well plates were required per compound. A serial dilution of the compound was performed on two plates from row A–G using with LB as medium. Row H was filled with 25 µL medium. On a separate plate a negative control (8 wells, 100 μL medium) was prepared. For all concentrations of antibiotic a specific stock was prepared. 25 µL medium was added to the 0 µg/mL antibiotic columns (plate I, column 1–3). Of each antibiotic stock 25 µL was added to three columns to obtain triplicates for every condition. Both plates contained 50 µL in each well to which 50 µL bacterial stock was added (see the protocol of the MIC assays) and the plates were sealed. After incubation for 20 h at 37 °C while shaking, the breathable seals were removed and the density of the bacterial suspensions measured at 600 nm (OD600) using a Tecan Spark plate reader. The OD600 values were transformed to a 2D gradient with the negative control as minimum and the positive control (wells G1, G2, and G3) as maximum in excel. The FICi was calculated using Equation (1) with a FICi ≤ 0.5 indicating synergy. FICi = (MSCa/MICa) + (MSCb/MICb),(1)
(§4) Calculation of the FICi: MSCa = concentration of the […] in combination with the antibiotic that results in the lowest FICi. MICa = MIC of the antibiotic without synergist (row G). MSCb = concentration of the synergist in combination with the antibiotic that results in the lowest FICi. MICb = MIC of the synergist itself (Column 1–3, plate I).

[2] = system: E. coli BW25113; type: cell-based, Escherichia coli; conditions: for FICi: BW25113, 20 h; for MICpep: synergist alone, E. coli BW25113, from checkerboard with rifampicin; for MSCpep: synergist concentration in the combination with rifampicin giving the lowest FICi
[3] = system: E. coli EQASmcr-2 (EQAS 2016 KP37); type: cell-based, Escherichia coli; conditions: for FICi: EQASmcr-2 (EQAS 2016 KP37, 20 h); for MICpeptide: peptide alone; for MICpeptide / MSCpeptide / MSCrif: E. coli EQASmcr-2; for MSCpeptide: peptide concentration in the combination with rifampicin giving the lowest FICi; for MSCrif: rifampicin concentration in the combination giving the lowest FICi
[4] = system: E. coli EQASmcr-1 (EQAS 2016 412016126); type: cell-based, Escherichia coli; conditions: for MICpeptide: peptide alone; for MICpeptide / MSCpeptide / MSCrif: E. coli EQASmcr-1; for MSCpeptide: peptide concentration in the combination with rifampicin giving the lowest FICi; for MSCrif: rifampicin concentration in the combination giving the lowest FICi
[5] = system: E. coli mcr-1; type: cell-based, Escherichia coli; conditions: for MICpeptide: peptide alone; for MICpeptide / MSCpeptide / MSCrif: E. coli mcr-1; for MSCpeptide: peptide concentration in the combination with rifampicin giving the lowest FICi; for MSCrif: rifampicin concentration in the combination giving the lowest FICi; for FICi: with rifampicin vs E. coli mcr-1
Outline: (§5)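 Checkerboard of peptide serial dilutions against rifampicin concentrations in triplicate, in LB with 1.0 × 10^6 CFU/mL final inoculum after mixing the 2.0 × 10^6 CFU/mL stock 1:1, 20 h at 37 °C shaking. OD600 read; FICi = MSCa/MICa + MSCb/MICb, ≤0.5 taken as synergy.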

[6] = system: E. coli EQASmcr-3 (EQAS 2017 2013-SQ352); type: cell-based, Escherichia coli; conditions: for MICpeptide: peptide alone; for MICpeptide / MSCpeptide / MSCrif: E. coli EQASmcr-3; for MSCpeptide: peptide concentration in the combination with rifampicin giving the lowest FICi; for MSCrif: rifampicin concentration in the combination giving the lowest FICi
[7] = system: E. coli ATCC25922; type: cell-based, Escherichia coli; conditions: for FICi: ATCC25922, 20 h; for MICpeptide: peptide alone; for MICpeptide / MSCpeptide / MSCrif: E. coli ATCC25922; for MSCpeptide: peptide concentration in the combination with rifampicin giving the lowest FICi; for MSCrif: rifampicin concentration in the combination giving the lowest FICi
Outline: as §5

[8] = system: E. coli W3110; type: cell-based, Escherichia coli; conditions: for MICpeptide: peptide alone; for MICpeptide / MSCpeptide / MSCrif: E. coli W3110; for MSCpeptide: peptide concentration in the combination with rifampicin giving the lowest FICi; for MSCrif: rifampicin concentration in the combination giving the lowest FICi
[9] = system: E. coli BW25113; assay: Checkerboard assay with erythromycin; type: cell-based, Escherichia coli; conditions: for MSCery: erythromycin concentration in the combination with the synergist giving the lowest FICi, E. coli BW25113; for MIC of the peptide (MICpep): synergist alone, from checkerboard with erythromycin; for MIC of the peptide (MICpep) / MSCpeptide, minimum synergistic concentration: E. coli BW25113, LB, 20 h 37 °C; for MSCpeptide, minimum synergistic concentration: synergist concentration in the combination with erythromycin giving the lowest FICi, OD600
[10] = system: P. aeruginosa ATCC27853; assay: Checkerboard assay with rifampicin; type: cell-based, Pseudomonas aeruginosa; conditions: for MICpeptide: peptide alone; for MICpeptide / MSCpeptide / MSCrif: P. aeruginosa ATCC27853; for MSCpeptide: peptide concentration in the combination with rifampicin giving the lowest FICi; for MSCrif: rifampicin concentration in the combination giving the lowest FICi; for FICi: with rifampicin vs P. aeruginosa ATCC27853, synergy defined as FICi ≤ 0.5
Description: as §1, §2, §3, §4

[11] = EQASmcr-1 (EQAS 2016 412016126, 20 h)
[12] = EQASmcr-3 (EQAS 2017 2013-SQ352, 20 h)
[13] = with rifampicin vs E. coli W3110, synergy defined as FICi ≤ 0.5

SMILES | MICpeptide [1] | MSCpeptide [1] | MSCvanco [1] | MICpep [2] | MSCpep ([2]; E. coli BW25113) | FICi [3] | MICpeptide [3] | MSCpeptide [3] | MSCrif [3] | MICpeptide [4] | MSCpeptide [4] | MSCrif [4] | MICpeptide [5] | MSCpeptide [5] | MSCrif [5] | FICi [5] | MICpeptide [6] | MSCpeptide [6] | MSCrif [6] | FICi [7] | further results
CC[C@H](C)[C@H](NC(=O)[C@@H](NC(=O)[C@H](CCCCN)NC(=O)[C@H](CCC(N)=O)NC(=O)[C@@H](NC(=O)[C@H](Cc1c[nH]c2ccccc12)NC(=O)[C@H](CCCCN)NC(=O)[C@H](CCCCN)NC(=O)[C@H](CC(C)C)NC(=O)[C@H](CCCNC(=N)N)NC(=O)[C@H](Cc1ccccc1)NC(=O)[C@@H](N)C(C)C)[C@@H](C)CC)C(C)C)C(N)=O [peptide 6] (H-VFRLKKWIQKVI-NH2) | 25 µg/mL | 3.125 µg/mL | 25 µg/mL | 25 µg/mL | 3.125 µg/mL | 0.0938 | 100 µg/mL | 6.25 µg/mL | 0.25 µg/mL | 100 µg/mL | 6.25 µg/mL | 0.125 µg/mL | 100 µg/mL | 12.5 µg/mL | 0.188 µg/mL | 0.1406 | 50 µg/mL | 3.125 µg/mL | 0.125 µg/mL | 0.0469 | FICi [2]: 0.1563; MSCrif ([2]; rifampicin concentration in the combination giving the lowest FICi, E. coli BW25113): 0.25 µg/mL; FICi [4, 11]: 0.0781; FICi [6, 12]: 0.0781; MICpeptide [7]: 200 µg/mL; MSCpeptide [7]: 6.25 µg/mL; MSCrif [7]: 0.063 µg/mL; MICpeptide [8]: 6.25 µg/mL; MSCpeptide [8]: 3.125 µg/mL; MSCrif [8]: 0.125 µg/mL; FICi [8, 13]: > 0.5; MSCery [9]: 12.5 µg/mL; MIC of the peptide (MICpep) [9]: 12.5 µg/mL; MSCpeptide, minimum synergistic concentration [9]: 3.125 µg/mL and 3.13 µg/mL; MICpeptide [10]: 50 µg/mL; MSCpeptide [10]: 25 µg/mL; MSCrif [10]: 1 µg/mL; FICi [10]: > 0.5
CC[C@H](C)[C@H](NC(=O)[C@@H](NC(=O)[C@H](CCCCN)NC(=O)[C@H](CCC(N)=O)NC(=O)[C@@H](NC(=O)[C@H](Cc1c[nH]c2ccccc12)NC(=O)[C@H](CCCCN)NC(=O)[C@H](CCCCN)NC(=O)[C@H](CC(C)C)NC(=O)[C@H](C)NC(=O)[C@H](Cc1ccccc1)NC(=O)[C@@H](N)C(C)C)[C@@H](C)CC)C(C)C)C(N)=O [peptide 10] (H-VFALKKWIQKVI-NH2) | 100 µg/mL | 12.5 µg/mL | 12.5 µg/mL | 100 µg/mL | 12.5 µg/mL | 0.1406 | 100 µg/mL | 12.5 µg/mL | 0.125 µg/mL | 200 µg/mL | 12.5 µg/mL | 0.125 µg/mL | > 200 µg/mL | 25 µg/mL | 0.188 µg/mL | 0.0781 | 200 µg/mL | 12.5 µg/mL | 0.125 µg/mL | 0.0313 | FICi [1]: 0.1563; FICi ([4]; with rifampicin vs E. coli EQASmcr-1): 0.0781; FICi ([6]; with rifampicin vs E. coli EQASmcr-3): 0.0781; MICpeptide [7]: > 200 µg/mL; MSCpeptide [7]: 6.25 µg/mL; MSCrif [7]: 0.063 µg/mL; MICpeptide [8]: 25 µg/mL; MSCpeptide [8]: 12.5 µg/mL; MSCrif [8]: 0.125 µg/mL; FICi [8, 13]: > 0.5; MSCery [9]: 3.125 µg/mL; MIC of the peptide (MICpep) [9]: 100 µg/mL; MSCpeptide, minimum synergistic concentration [9]: 12.5 µg/mL; MICpeptide [10]: > 200 µg/mL; MSCpeptide [10]: 100 µg/mL; MSCrif [10]: 4 µg/mL; FICi [10]: 0.2500
CC[C@H](C)[C@H](NC(=O)[C@@H](NC(=O)[C@H](CCCCN)NC(=O)[C@H](CCC(N)=O)NC(=O)[C@@H](NC(=O)[C@H](C)NC(=O)[C@H](CCCCN)NC(=O)[C@H](CCCCN)NC(=O)[C@H](CC(C)C)NC(=O)[C@H](CCCNC(=N)N)NC(=O)[C@H](Cc1ccccc1)NC(=O)[C@@H](N)C(C)C)[C@@H](C)CC)C(C)C)C(N)=O [peptide 14] (H-VFRLKKAIQKVI-NH2) | > 200 µg/mL | 50 µg/mL | 50 µg/mL | > 200 µg/mL | 50 µg/mL | 0.0938 | > 200 µg/mL | 25 µg/mL | 0.25 µg/mL | > 200 µg/mL | 12.5 µg/mL | 0.5 µg/mL | > 200 µg/mL | 25 µg/mL | 0.75 µg/mL | 0.1250 | > 200 µg/mL | 12.5 µg/mL | 0.125 µg/mL | 0.0313 | FICi [1]: 0.2500; FICi [2]: 0.1406; FICi [4, 11]: 0.0938; FICi [6, 12]: 0.0469; MICpeptide [7]: > 200 µg/mL; MSCpeptide [7]: 6.25 µg/mL; MSCrif [7]: 0.063 µg/mL; FICi ([8]; W3110, 20 h): 0.1875; MICpeptide [8]: > 200 µg/mL; MSCpeptide [8]: 50 µg/mL; MSCrif [8]: 0.5 µg/mL; MSCery [9]: 12.5 µg/mL; MIC of the peptide (MICpep) [9]: > 200 µg/mL; MSCpeptide, minimum synergistic concentration [9]: 6.25 µg/mL; MICpeptide [10]: > 200 µg/mL; MSCpeptide [10]: 50 µg/mL; MSCrif [10]: 0.5 µg/mL
